In ChEMBL document CHEMBL1201862, “PubChem BioAssay data set” (2004):
Active and inactive are the calls of the source. Unless noted, the rule behind the calls is not given here.

Assays:
[1] = A cell-based HTS for delayed death inhibitors of the malarial parasite plastid Measured in Microorganism System Using Plate Reader - 2126-02_Inhibitor_Dose_DryPowder_Activity.; type: functional, organism-based
[2] = system: Erythrocyte; assay: FACS-based assay to assess parasite growth inhibition 96 hr Measured in Cell-Based System Using Flow Cytometry - 2126-05_Inhibitor_Dose_DryPowder_Activity. [Related pubchem assays (depositor defined):AID488774]; type: functional; settings: Homo sapiens
[3] = FACS-based assay to assess parasite growth inhibition 48 hr Measured in Cell-Based System Using Flow Cytometry - 2126-03_Inhibitor_Dose_DryPowder_Activity. [Related pubchem assays (depositor defined):AID488774]; type: functional; settings: Homo sapiens
[4] = A cell-based HTS for delayed death inhibitors of the malarial parasite plastid Measured in Microorganism System Using Plate Reader - 2126-01_Inhibitor_Dose_DryPowder_Activity.; type: functional, organism-based
[5] = target: Melanin-concentrating hormone receptor 1 (Homo sapiens, UniProt Q99705); assay: Late-stage fluorescence-based counterscreen for antagonists of the G-protein coupled receptor 7 (GPR7): cell-based dose response assay to identify antagonists of the melanin-concentrating hormone receptor 1 (MCHR1) Set 5.; type: functional
Melanin-concentrating hormone receptor 1, sequence (Q99705 whole entry): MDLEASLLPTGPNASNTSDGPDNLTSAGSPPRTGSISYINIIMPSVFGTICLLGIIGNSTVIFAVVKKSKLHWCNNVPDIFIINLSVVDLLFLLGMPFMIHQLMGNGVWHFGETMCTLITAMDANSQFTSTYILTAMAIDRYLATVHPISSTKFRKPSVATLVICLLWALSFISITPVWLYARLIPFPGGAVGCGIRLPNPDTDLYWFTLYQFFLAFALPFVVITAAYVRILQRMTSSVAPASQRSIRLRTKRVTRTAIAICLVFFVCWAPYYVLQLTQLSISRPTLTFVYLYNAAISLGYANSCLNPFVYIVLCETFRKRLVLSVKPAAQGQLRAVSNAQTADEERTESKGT

Compound | AC50 [1] | AC50 [2] | AC50 [3] | AC50 [4] | IC50 [5]
COCCOC(=O)N(C)C[C@@H]1OCCCC[C@H](C)Oc2ccc(NC(=O)Nc3ccccc3)cc2C(=O)N([C@@H](C)CO)C[C@H]1C | > 5 µM (inactive) | 13.4 µM (active) | 10.9 µM (active) | > 5 µM (inactive) | –
CCc1cccc(Oc2c(Cl)cnn(Cc3cccc4ccccc34)c2=O)c1 | – | – | – | – | > 20 µM (inactive)
